Key:
[1] = test system: B16V mouse melanoma cells; assay: B16V mouse melanoma cell test, melanin content after alpha-MSH stimulation; type: cell-based; details: DMSO blank = 100, DMSO + alpha-MSH = 235
Experimental: B16V mouse melanoma cells (manufacturer: DSMZ; Article No.: ACC370) are transferred into RPMI medium (Invitrogen, Article No.: 31870), to which 10% of FBS (foetal bovine serum; Invitrogen, Article No.: 10499044), 2 mM L-glutamine (Invitrogen, Article No: 25030) and 1 mM sodium pyruvate (Invitrogen, Article No.: 11360) had additionally been added, and incubated at 37° C. and 5% CO2 for 72 h. The medium is separated off, and the cells are washed once with 10 ml of DPBS (Dulbecco's phosphate-buffered salines; Invitrogen, Article No.: 14190), and the medium is subsequently removed by suction. 1 ml of HyQtase cell detachment solution (Hyclone, Article No.: SV30030.01) is added to the cells. The bottle is swirled a number of times, and the HyQtase cell detachment solution is subsequently removed by suction. The cells are then incubated in the incubator at 37° C. and 5% CO2 for 5 min. The cells are taken up in the modified RPMI medium (see above), and the cell count is determined. To this end, the cells are stained with Trypan Blue and counted in a Neubauer counting chamber. The cells are subsequently sown out again in the modified RPMI medium (see above) in a defined cell count of 80,000 cells per well (6-well clear plate, TCT, PS (Nunc)).
The cells are incubated at 37° C. and 5% CO2 for 24 h, the medium is then removed. 1980 μl of the substance dilution are subsequently added. […]
After the final incubation period, the medium is removed by suction, and the cells are washed with 1000 μl of DPBS (Invitrogen, Article No.: 14190). […] The cell count is subsequently determined. To this end, the cells are stained with Trypan Blue and counted in a Neubauer counting chamber. […] Four times 200 μl per cup (as quadruple determination) are subsequently pipetted into a 96-well plate (VWR, Article No.: 4100636981), and the absorption at a wavelength of 405 nm is determined (Safire, Tecan). The content of melanin can be determined in this way by means of a calibration line.

[2] = test system: normal human epidermal melanocytes (NHEM); assay: Melanogenesis assay with human primary cells; type: cell-based; details: 10 days incubation, DMSO control = 100, concentration not given
Experimental: An ampoule of normal human epidermal melanocytes (NHEM, Promocell) is thawed and divided into further bottles depending on the number of their duplicates. After 2 to 3 weeks, between 750,000 and one million cells are transferred into T25 bottles with 5 ml of full medium. After 24 hours, the medium is removed and replaced by corresponding substance dilutions or controls. The overall duration of the incubation of the various test substances on the cells is 10 days. During these 10 days, the substance dilutions or controls are replaced every 2-3 days. After 10 days, the melanocytes are harvested. 500 μl of trypsin/EDTA is added to the cells and immediately removed again by suction. The cells are subsequently taken up in medium, counted and centrifuged off. The supernatant is removed, the pellet is washed with DPBS and centrifuged again. A photo of this pellet is taken. The pellet is then taken up in 1 ml of NaOH (1 M) and incubated in a shaker at 80° C. for one hour. The solution, cooled to room temperature, is pipetted into a 96-well plate (4×200 μl), and the absorption at 405 nm is measured. The values measured are subsequently plotted in percent against the control.

Row | Structure (SMILES) | Relative melanin content in % ([1]; 0.05 mM + alpha-MSH (10^-8 M)) | Relative melanin content in % ([1]; 0.1 mM + alpha-MSH (10^-8 M)) | Relative melanin content in % [2] | Relative melanin content in % ([1]; 1 mM + alpha-MSH (10^-8 M))
1 | O=C(c1ccco1)C(O)c1ccco1 (stereo not shown) [2,2′-Furoin, 2,2′-furoin] | 88.0% | 63.1% | 72.9% | 
2 | O=c1cc(CO)occ1O [Kojic acid, reference compound] |  |  |  | 96%
